From patent publication US20250163038A1, “CBL-B MODULATORS AND USES THEREOF” (Nimbus Clio, Inc., priority 2021, published 2025) come the findings set out here.

For assay [1], the target named is Recombinant human Cbl-b (aa 36-427) (Homo sapiens, UniProt Q13191). As to the kind of experiment: Cbl-b Biochemical Assay (TR-FRET). (TR-FRET usually uses a lanthanide donor and a delayed reading to cut background.)
The subject of assay [2] is Jurkat (clone E6-1) cells with NFAT luciferase reporter. As to the kind of experiment: Jurkat reporter assay (NFAT Luciferase). Format: cell-based. As to conditions: Homo sapiens; Jurkat NFAT luciferase reporter cells, anti-CD3 stimulation, 6 hr; read-out: Jurkat NFAT EC50.
Assay [3] concerns the target T1, Recombinant human c-Cbl (aa 47-435) (Homo sapiens, UniProt P22681).
T1 sequence (P22681 47-435): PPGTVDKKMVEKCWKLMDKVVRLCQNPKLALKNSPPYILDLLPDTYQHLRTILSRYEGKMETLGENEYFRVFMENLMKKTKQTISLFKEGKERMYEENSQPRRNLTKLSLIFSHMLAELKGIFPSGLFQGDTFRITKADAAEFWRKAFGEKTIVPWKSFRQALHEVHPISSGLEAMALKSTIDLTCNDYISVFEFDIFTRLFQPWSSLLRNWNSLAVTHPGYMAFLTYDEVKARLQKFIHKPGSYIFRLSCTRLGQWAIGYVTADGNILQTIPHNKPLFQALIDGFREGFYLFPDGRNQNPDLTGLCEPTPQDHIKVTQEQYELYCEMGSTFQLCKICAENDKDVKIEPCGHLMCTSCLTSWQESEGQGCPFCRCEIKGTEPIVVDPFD
As to the kind of experiment: c-Cbl Biochemical Assay (TR-FRET).

Setting [4] is: hc-Cbl Biochemical Assay (TR-FRET), read-out: TR-FRET hcCbl IC50.

Each structure is given as a SMILES string. Like-named read-outs stand apart in the source and are kept apart here. Some results are limits rather than exact numbers.

Chain of Recombinant human Cbl-b (aa 36-427) (Q13191 36-427): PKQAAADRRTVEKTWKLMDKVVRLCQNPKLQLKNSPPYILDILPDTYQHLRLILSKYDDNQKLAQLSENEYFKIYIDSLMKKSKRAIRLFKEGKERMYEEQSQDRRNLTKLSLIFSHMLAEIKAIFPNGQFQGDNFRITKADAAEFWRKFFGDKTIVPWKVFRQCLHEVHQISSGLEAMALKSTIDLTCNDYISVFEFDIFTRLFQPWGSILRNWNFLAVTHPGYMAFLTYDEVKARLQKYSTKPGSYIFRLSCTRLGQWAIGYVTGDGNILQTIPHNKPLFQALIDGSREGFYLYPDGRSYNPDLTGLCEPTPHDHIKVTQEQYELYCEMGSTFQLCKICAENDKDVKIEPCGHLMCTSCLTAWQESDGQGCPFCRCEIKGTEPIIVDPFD

For orientation: IC50 means the point on the concentration scale where inhibition reaches its midpoint. In general, EC50 refers to the concentration that produces a half-maximal response. On to `Cc1cc(CNCC2(O)CCC2)cc2nc(-c3cc(-c4ccc(F)cc4-c4nncn4C)cc(C4CC4)n3)oc12` [AEV-1, 1-({[(2-{6-Cyclopropyl-4-[4-fluoro-2-(4-methyl-1,2,4-triazol-3-yl)phenyl]pyridin-2-yl}-7-methyl-1,3-benzoxazol-5-yl)methyl]amino}methyl)cyclobutan-1-ol], for which the IC50 in assay [1] (read-out: TR-FRET hCbl-b IC50) and in assay [3] (setting [4]) was < 200 nM each time. In addition, the EC50 in assay [2] is < 200 nM.

Turning to `CN(Cc1cc(C(F)(F)F)c2oc(-c3cc(-c4ccc(F)cc4-c4nncn4C)cc(C4CC4)n3)nc2c1)[C@@H]1CCC[C@@H]1O` [AEW-1, (1S, 2R)-2-{1[(2-{6-Cyclopropyl-4-[4-fluoro-2-(4-methyl-1,2,4-triazol-3-yl)phenyl]pyridin-2-yl}-7-(trifluoromethyl)-1,3-benzoxazol-5-yl)methyl](methyl)amino}cyclopentan-1-ol], the IC50 in assay [1] (read-out: TR-FRET hCbl-b IC50) and in assay [3] (setting [4]) was < 200 nM throughout. In addition, the EC50 in assay [2] was < 200 nM.

With `COc1cc(CO)cc2nc(-c3cc(-c4ccc(F)cc4-c4nncn4C)cc(C4CC4)n3)oc12` [AEX-2, (2-{6-Cyclopropyl-4-[4-fluoro-2-(4-methyl-1,2,4-triazol-3-yl)phenyl]pyridin-2-yl}-7-methoxy-1,3-benzoxazol-5-yl)methanol], the results for the IC50 in assay [1] (read-out: TR-FRET hCbl-b IC50) and in assay [3] (setting [4]) were 200 to 1000 nM and 1000 to 10000 nM, respectively. For the same molecule, the EC50 in assay [2] lay in the range of 1000 to 10000 nM.

Regarding `COc1cc(CN[C@@H]2CCC[C@@H]2O)cc2nc(-c3cc(-c4ccc(F)cc4-c4nncn4C)cc(C4CC4)n3)oc12` [AEY-2], the IC50 in assay [1] (read-out: TR-FRET hCbl-b IC50) and in assay [3] (setting [4]) was < 200 nM in each case. Further, in assay [2], the EC50 is < 200 nM.

Regarding `COCCNCc1cc(C)c2oc(-c3cc(-c4ccc(F)cc4-c4nncn4C)cc(C4CC4)n3)nc2c1` [AEZ-1, [(2-{6-Cyclopropyl-4-[4-fluoro-2-(4-methyl-1,2,4-triazol-3-yl)phenyl]pyridin-2-yl}-7-methyl-1,3-benzoxazol-5-yl)methyl](2-methoxyethyl)amine], the 50% inhibitory concentration (IC50) in assay [1] (read-out: TR-FRET hCbl-b IC50) and in assay [3] (setting [4]) was < 200 nM throughout. Moreover, the EC50 in assay [2] is < 200 nM.

Turning to `Cn1cnnc1-c1cc(F)ccc1-c1cccc(-c2nc3cc(CN4CC(C)(O)C4)cc(C(F)(F)F)c3o2)c1` [AF-2, 1-((2-(4′-Fluoro-2′-(4-methyl-4H-1,2,4-triazol-3-yl)-[1,1′-biphenyl]-3-yl)-7-(trifluoromethyl)benzo[d]oxazol-5-yl)methyl)-3-methylazetidin-3-ol], the IC50 is < 200 nM in assay [1] (read-out: TR-FRET hCbl-b IC50) and 1000 to 10000 nM in assay [3] (setting [4]). For the same molecule, in assay [2], the EC50 fell in the range of 200 to 1000 nM.

As to `Cn1cnnc1-c1cc(F)ccc1-c1cc(-c2nc3cc(CO)cc(F)c3o2)nc(C2CC2)c1` [AFA-2, (2-{6-Cyclopropyl-4-[4-fluoro-2-(4-methyl-1,2,4-triazol-3-yl)phenyl]pyridin-2-yl}-7-fluoro-1,3-benzoxazol-5-yl)methanol], the IC50 in assay [1] (read-out: TR-FRET hCbl-b IC50) and in assay [3] (setting [4]) was 200 to 1000 nM throughout. Besides, in assay [2], the EC50 was 1000 to 10000 nM.

`Cn1cnnc1-c1cc(F)ccc1-c1cc(-c2nc3cc(CN[C@@H]4CCC[C@@H]4O)cc(F)c3o2)nc(C2CC2)c1` [AFB-2, (1S,2R)-2-{[(2-{6-Cyclopropyl-4-[4-fluoro-2-(4-methyl-1,2,4-triazol-3-yl)phenyl]pyridin-2-yl}-7-fluoro-1,3-benzoxazol-5-yl)methyl]amino}cyclopentan-1-ol]: the IC50 in assay [1] and in assay [3] was < 200 nM in each case. Moreover, the EC50 in assay [2] was < 200 nM.

Turning to `Cn1cnnc1-c1cc(F)ccc1-c1cc(-c2nc3cc(CNCC4(O)CCC4)ccc3o2)nc(C2CC2)c1` [AFC-1, 1-({[(2-{6-Cyclopropyl-4-[4-fluoro-2-(4-methyl-1,2,4-triazol-3-yl)phenyl]pyridin-2-yl}-1,3-benzoxazol-5-yl)methyl]amino}methyl)cyclobutan-1-ol], the IC50 in assay [1] (read-out: TR-FRET hCbl-b IC50) and in assay [3] (setting [4]) was < 200 nM throughout. Besides, the EC50 in assay [2] was < 200 nM.

Take `Cn1cnnc1-c1cc(F)ccc1-c1cc(-c2nc3cc(CNCC(C)(C)O)ccc3o2)nc(C2CC2)c1` [AFD-1, 1-{[(2-{6-Cyclopropyl-4-[4-fluoro-2-(4-methyl-1,2,4-triazol-3-yl)phenyl]pyridin-2-yl}-1,3-benzoxazol-5-yl)methyl]amino}-2-methylpropan-2-ol]: the IC50 in assay [1] (read-out: TR-FRET hCbl-b IC50) and in assay [3] (setting [4]) was < 200 nM throughout. For the same molecule, the EC50 in assay [2] is < 200 nM.

In the case of `Cn1cnnc1-c1cc(F)ccc1-c1cc(-c2nc3cc(CNCC4(O)CCCC4)ccc3o2)nc(C2CC2)c1` [AFE-1, 1-({[(2-{6-Cyclopropyl-4-[4-fluoro-2-(4-methyl-1,2,4-triazol-3-yl)phenyl]pyridin-2-yl}-1,3-benzoxazol-5-yl)methyl]amino}methyl)cyclopentan-1-ol], the half-maximal inhibitory concentration (IC50) in assay [1] (read-out: TR-FRET hCbl-b IC50) and in assay [3] (setting [4]) was < 200 nM in each case. For the same molecule, the EC50 in assay [2] is < 200 nM.

`Cc1cc(CNCC2CCC2)cc2nc(-c3cc(-c4ccc(F)cc4-c4nncn4C)cc(C4CC4)n3)oc12` [AFF-1, 1-Cyclobutyl-N-((2-(6-cyclopropyl-4-(4-fluoro-2-(4-methyl-4H-1,2,4-triazol-3-yl)phenyl)pyridin-2-yl)-7-methylbenzo[d]oxazol-5-yl)methyl)methanamine]: the IC50 in assay [1] (read-out: TR-FRET hCbl-b IC50) and in assay [3] (setting [4]) was < 200 nM each time. Besides, the EC50 in assay [2] is < 200 nM.

Turning to `Cc1cc(CN(C)[C@@H]2CCC[C@@H]2O)cc2nc(-c3cc(-c4ccc(F)cc4-c4nncn4C)cc(C4CC4)n3)oc12` [AFG-1, (1S,2R)-2-(((2-(6-Cyclopropyl-4-(4-fluoro-2-(4-methyl-4H-1,2,4-triazol-3-yl)phenyl)pyridin-2-yl)-7-methylbenzo[d]oxazol-5-yl)methyl)(methyl)amino)cyclopentan-1-ol], the IC50 in assay [1] and in assay [3] was < 200 nM each time. In addition, the 50% effective concentration (EC50) in assay [2] was < 200 nM.

Regarding `Cc1cc(CN(C)CC2(O)CCC2)cc2nc(-c3cc(-c4ccc(F)cc4-c4nncn4C)cc(C4CC4)n3)oc12` [AFH-2, 1-({[(2-{6-Cyclopropyl-4-[4-fluoro-2-(4-methyl-1,2,4-triazol-3-yl)phenyl]pyridin-2-yl}-7-methyl-1,3-benzoxazol-5-yl)methyl](methyl)amino}methyl)cyclobutan-1-ol], the IC50 in assay [1] (read-out: TR-FRET hCbl-b IC50) is < 200 nM; in assay [3] (setting [4]), 200 to 1000 nM. Also, the EC50 in assay [2] was 200 to 1000 nM.

Take `Cn1cnnc1-c1cc(F)ccc1-c1cc(-c2nc3cc(CNCC4(O)CCC4)cc(F)c3o2)nc(C2CC2)c1` [AFI-1, 1-({[(2-{6-Cyclopropyl-4-[4-fluoro-2-(4-methyl-1,2,4-triazol-3-yl)phenyl]pyridin-2-yl}-7-fluoro-1,3-benzoxazol-5-yl)methyl]amino}methyl)cyclobutan-1-ol]: the IC50 in assay [1] (read-out: TR-FRET hCbl-b IC50) and in assay [3] (setting [4]) was < 200 nM each time. Moreover, the EC50 in assay [2] is < 200 nM.

On to `Cn1cnnc1-c1cc(F)ccc1-c1cc(-c2nc3cc(CNCC4(F)CCC4)cc(F)c3o2)nc(C2CC2)c1` [AFJ-1, [(2-{6-Cyclopropyl-4-[4-fluoro-2-(4-methyl-1,2,4-triazol-3-yl)phenyl]pyridin-2-yl}-7-fluoro-1,3-benzoxazol-5-yl)methyl][(1-fluorocyclobutyl)methyl]amine], for which the IC50 in assay [1] (read-out: TR-FRET hCbl-b IC50) and in assay [3] (setting [4]) was < 200 nM in each case. The EC50 in assay [2] is 200 to 1000 nM.

With `CN(Cc1cc(F)c2oc(-c3cc(-c4ccc(F)cc4-c4nncn4C)cc(C4CC4)n3)nc2c1)[C@@H]1CCC[C@@H]1O` [AFK-1, (1S,2R)-2-{[(2-{6-Cyclopropyl-4-[4-fluoro-2-(4-methyl-1,2,4-triazol-3-yl)phenyl]pyridin-2-yl}-7-fluoro-1,3-benzoxazol-5-yl)methyl](methyl)amino}cyclopentan-1-ol], the concentration for half-maximal inhibition (IC50) in assay [1] (read-out: TR-FRET hCbl-b IC50) and in assay [3] (setting [4]) was < 200 nM each time. For the same molecule, the EC50 in assay [2] is 200 to 1000 nM.

Turning to `Cn1cnnc1-c1cc(F)ccc1-c1cc(-c2nc3cc(CN[C@@H]4CCC[C@]4(C)O)cc(F)c3o2)nc(C2CC2)c1` [AFL-2, (1S,2R)-2-(((2-(6-Cyclopropyl-4-(4-fluoro-2-(4-methyl-4H-1,2,4-triazol-3-yl)phenyl)pyridin-2-yl)-7-fluorobenzo[d]oxazol-5-yl)methyl)amino)-1-methylcyclopentan-1-ol], the IC50 in assay [1] is < 200 nM; in assay [3] it was 200 to 1000 nM. Further, the EC50 in assay [2] was in the range of 1000 to 10000 nM.

In the case of `Cn1cnnc1-c1cc(F)ccc1-c1cc(-c2nc3cc(CN[C@@H]4CCC[C@@]4(C)O)cc(F)c3o2)nc(C2CC2)c1` [AFM-1, (1R,2R)-2-(((2-(6-Cyclopropyl-4-(4-fluoro-2-(4-methyl-4H-1,2,4-triazol-3-yl)phenyl)pyridin-2-yl)-7-fluorobenzo[d]oxazol-5-yl)methyl)amino)-1-methylcyclopentan-1-ol], the IC50 in assay [1] was < 200 nM; in assay [3], 200 to 1000 nM. Moreover, the EC50 in assay [2] lay within 1000 to 10000 nM.

`CO[C@H](C)CNCc1cc(F)c2oc(-c3cc(-c4ccc(F)cc4-c4nncn4C)cc(C4CC4)n3)nc2c1` [AFN-2, [(2-{6-Cyclopropyl-4-[4-fluoro-2-(4-methyl-1,2,4-triazol-3-yl)phenyl]pyridin-2-yl}-7-fluoro-1,3-benzoxazol-5-yl)methyl][(2R)-2-methoxypropyl]amine]: the IC50 in assay [1] (read-out: TR-FRET hCbl-b IC50) and in assay [3] (setting [4]) was < 200 nM throughout. For the same molecule, in assay [2], the EC50 was in the range of 200 to 1000 nM.
